In patent US9593149B2, “Amylin and calcitonin receptor agonist” (Novo Nordisk A/S, priority 2014, dated 2017):
In brackets after ≈: the same amount, converted by molar mass. Numbered stars: 1 amine (or outer) side, 2 acyl side, 3 side chain; on linkers, the order of the positions; unused ones are H or OH. Peptide text beside a SMILES is read from it. * marks the point of attachment. C20 diacid = O=C(O)CCCCCCCCCCCCCCCCCCC(=O)*; C18 diacid = O=C(O)CCCCCCCCCCCCCCCCC(=O)*; γGlu = O=C(O)[C@H](CCC(=O)[*:2])N[*:1]

Legend:
[1] = Assay (IV) determination of solubility; format: physicochemical
Method: Assay (IV)—Determination of Solubility
The mimylin peptide was dissolved in water at ˜500 nmol/ml and mixed 1:1 with a series of buffers (100 mM glycylglycine pH 3.0, 100 mM glycylglycine pH 4.0, 100 mM glycylglycine pH 5.0, 100 mM bistrispropane pH 6.0, 100 mM bistrispropane pH 6.5, 100 mM bistrispropane pH 7.0, 100 mM bistrispropane pH 7.5, 100 mM bistrispropane pH 8.0).

[2] = target: T1, rat calcitonin receptor (Rattus norvegicus, UniProt P32214); experiment: Assay (VIII) binding to the rat calcitonin receptor; conditions: membranes; read-out: rCT-R binding IC50
T1 construct: expressed in transfected cells; host or cells: BHK tk'ts 13 (transient, FuGENE 6)
T1 sequence (P32214 25-479 isoform P32214-2 limits assumed): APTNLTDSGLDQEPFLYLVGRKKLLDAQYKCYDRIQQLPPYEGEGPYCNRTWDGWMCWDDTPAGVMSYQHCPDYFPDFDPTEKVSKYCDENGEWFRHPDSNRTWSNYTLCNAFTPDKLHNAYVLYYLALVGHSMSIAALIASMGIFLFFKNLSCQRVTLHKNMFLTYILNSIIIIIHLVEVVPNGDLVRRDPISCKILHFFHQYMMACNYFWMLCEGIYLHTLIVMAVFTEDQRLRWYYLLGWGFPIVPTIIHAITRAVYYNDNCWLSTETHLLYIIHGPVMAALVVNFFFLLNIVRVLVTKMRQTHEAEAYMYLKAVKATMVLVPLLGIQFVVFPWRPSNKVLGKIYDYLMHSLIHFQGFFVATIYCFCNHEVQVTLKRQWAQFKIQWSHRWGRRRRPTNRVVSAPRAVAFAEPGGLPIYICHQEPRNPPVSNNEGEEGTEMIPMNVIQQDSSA
Method: The morning after, the plates were washed three times in HBSS (4° C.), and lyzed in Lysis buffer (0.1 M NaOH), 1% SDS. Scintillation cocktail (MicroScint40®) was added and the plates were shaken at 500 rpm for a short period. The plate was incubated at room temperature in the dark for 1 hour and Read on a TopCounter™ (Packard). The IC50 was calculated using (one site binding competition analysis) GraphPad Prism5 as a measure of receptor affinity. Assay (VIII)—Determination of Binding to the Rat Calcitonin Receptor
The assay was performed as described above (Assay (VII)—Determination of binding to the human calcitonin receptor) with the exception that we used membranes prepared from BHK tk'ts 13 cells that were transiently transfected with the rat calcitonin receptor. The BHK tk'ts 13 cells were transiently transfected with rat calcitonin receptor using FuGENE® 6 (Roche), according to the manufacturer's recommendations. Cells were grown in DMEM with 10% FBS and 1% Pen/Strep.

| Solubility ([1]; pH 3.0) | solubility at 18 h ([1]; pH 4.0) | solubility at 18 h ([1]; pH 5.0) | Solubility ([1]; pH 6.0) | Solubility ([1]; pH 6.5) | Solubility ([1]; pH 7.0) | Solubility ([1]; pH 7.5) | Solubility ([1]; pH 8.0) | IC50 [2] | solubility at 18 h ([1]; pH 6.0) | solubility at 18 h ([1]; pH 6.5) | Solubility ([1]; pH 4.0) | Solubility ([1]; pH 5.0) | Compound |
| --- | --- | --- | --- | --- | --- | --- | --- | --- | --- | --- | --- | --- | --- |
| ≧200 μM | 170 µM (≈ 671 µg/mL) | 56 µM (≈ 221 µg/mL) | ≧200 μM | ≧200 μM | ≧200 μM | ≧200 μM | ≧200 μM | 16 pM |  |  |  |  | CC(C)C[C@H](NC(=O)CNC(=O)[C@H](CO)NC(=O)[C@H](C)NC(=O)CC[C@H](NC(=O)CCCCCCCCCCCCCCCCCCC(=O)O)C(=O)O)C(=O)N[C@@H](CO)C(=O)N[C@H](C(=O)N[C@@H](C)C(=O)N[C@H](C(=O)N[C@@H](CC(C)C)C(=O)NCC(=O)N[C@@H](CCCNC(=N)N)C(=O)N[C@@H](CC(C)C)C(=O)N[C@@H](CO)C(=O)N[C@@H](CCC(N)=O)C(=O)N[C@@H](CCC(=O)O)C(=O)N[C@@H](CC(C)C)C(=O)N[C@@H](Cc1cnc[nH]1)C(=O)N[C@@H](CCC(=O)O)C(=O)N[C@@H](CC(C)C)C(=O)N[C@@H](CCC(N)=O)C(=O)N[C@H](C(=O)N[C@@H](Cc1ccc(O)cc1)C(=O)N1CCC[C@H]1C(=O)N[C@@H](CCCNC(=N)N)C(=O)N[C@H](C(=O)N[C@@H](CCC(=O)O)C(=O)N[C@H](C(=O)NCC(=O)N[C@@H](CO)C(=O)N[C@@H](CCC(N)=O)C(=O)N[C@H](C(=O)N[C@@H](Cc1ccc(O)cc1)C(N)=O)[C@@H](C)O)[C@@H](C)O)[C@@H](C)O)[C@@H](C)O)C(C)C)[C@@H](C)O [compound 119, [N-terminal(C20 diacid-gGlu), des1, 4G, 9V, 15Q, 21Q, 23Y, 30S, 31Q, 32T, 33Y]mimylin] ({C20 diacid-γGlu}-ASGLSTAVLGRLSQELHELQTYPRTETGSQTY-NH2) |
| ≧200 μM |  | 1 µM (≈ 3.82 µg/mL) |  |  | ≧200 μM | ≧200 μM | ≧200 μM | 62 pM | 63 µM (≈ 241 µg/mL) | 180 µM (≈ 688 µg/mL) |  |  | CC(C)C[C@H](NC(=O)[C@H](CO)NC(=O)[C@H](C)NC(=O)[C@@H](NC(=O)[C@H](CO)NC(=O)[C@H](CC(C)C)NC(=O)[C@H](CCC(=O)O)NC(=O)[C@H](CO)NC(=O)[C@H](C)NC(=O)CC[C@H](NC(=O)CCCCCCCCCCCCCCCCCCC(=O)O)C(=O)O)[C@@H](C)O)C(=O)NCC(=O)N[C@@H](CCCNC(=N)N)C(=O)N[C@@H](CC(C)C)C(=O)N[C@@H](CO)C(=O)N[C@@H](C)C(=O)N[C@@H](CCC(=O)O)C(=O)N[C@@H](CC(C)C)C(=O)N[C@@H](Cc1cnc[nH]1)C(=O)N[C@@H](CCC(=O)O)C(=O)N[C@@H](CC(C)C)C(=O)N[C@@H](CO)C(=O)N[C@H](C(=O)N[C@@H](Cc1ccc(O)cc1)C(=O)N1CCC[C@H]1C(=O)N[C@@H](CCCNC(=N)N)C(=O)N[C@H](C(=O)N[C@@H](CCC(=O)O)C(=O)N[C@H](C(=O)NCC(=O)N[C@@H](CO)C(=O)NCC(=O)N[C@@H](CO)C(=O)N[C@@H](Cc1ccc(O)cc1)C(N)=O)[C@@H](C)O)[C@@H](C)O)[C@@H](C)O [compound 100, [N-terminal(C20 diacid-gGlu), des1, 9S, 21S, 23Y, 30S, 31G, 33Y]mimylin] ({C20 diacid-γGlu}-ASELSTASLGRLSAELHELSTYPRTETGSGSY-NH2) |
| ≧200 μM |  |  | ≧200 μM | ≧200 μM | ≧200 μM | ≧200 μM | ≧200 μM | 13 pM |  |  | ≧200 μM | ≧200 μM | CC(C)C[C@H](NC(=O)[C@H](C)NC(=O)[C@H](C)NC(=O)[C@@H](NC(=O)[C@H](CO)NC(=O)[C@H](CC(C)C)NC(=O)[C@H](CCC(=O)O)NC(=O)[C@H](CO)NC(=O)[C@H](C)NC(=O)CCCCCCCCCCCCCCCCC(=O)O)[C@@H](C)O)C(=O)NCC(=O)N[C@@H](CCCNC(=N)N)C(=O)N[C@@H](CC(C)C)C(=O)N[C@@H](CO)C(=O)N[C@@H](C)C(=O)N[C@@H](CCC(=O)O)C(=O)N[C@@H](CC(C)C)C(=O)N[C@@H](Cc1cnc[nH]1)C(=O)N[C@@H](CCC(=O)O)C(=O)N[C@@H](CC(C)C)C(=O)N[C@@H](C)C(=O)N[C@H](C(=O)N[C@@H](CC(C)C)C(=O)N1CCC[C@H]1C(=O)N[C@@H](CCCNC(=N)N)C(=O)N[C@H](C(=O)N[C@@H](CCC(=O)O)C(=O)N[C@H](C(=O)NCC(=O)N[C@@H](CO)C(=O)NCC(=O)N[C@@H](CO)C(=O)N1CCC[C@H]1C(N)=O)[C@@H](C)O)[C@@H](C)O)[C@@H](C)O [compound 48, [N-terminal(C18 diacid), des1, 30S, 31G]mimylin] ({C18 diacid}-ASELSTAALGRLSAELHELATLPRTETGSGSP-NH2) |
| ≧200 μM | 10 µM (≈ 37.9 µg/mL) |  | ≧200 μM | ≧200 μM | ≧200 μM | ≧200 μM | ≧200 μM | 246 pM |  |  |  | ≧200 μM | CC(C)C[C@H](NC(=O)CNC(=O)[C@H](CO)NC(=O)[C@H](C)NC(=O)CC[C@H](NC(=O)CCCCCCCCCCCCCCCCCCC(=O)O)C(=O)O)C(=O)N[C@@H](CO)C(=O)N[C@H](C(=O)N[C@@H](C)C(=O)N[C@H](C(=O)N[C@@H](CC(C)C)C(=O)NCC(=O)N[C@@H](CCCCN)C(=O)N[C@@H](CC(C)C)C(=O)N[C@@H](CO)C(=O)N[C@@H](CCC(N)=O)C(=O)N[C@@H](CCC(=O)O)C(=O)N[C@@H](CC(C)C)C(=O)N[C@@H](Cc1cnc[nH]1)C(=O)N[C@@H](CCC(=O)O)C(=O)N[C@@H](CC(C)C)C(=O)N[C@@H](CCC(N)=O)C(=O)N[C@H](C(=O)N[C@@H](Cc1ccc(O)cc1)C(=O)N1CCC[C@H]1C(=O)N1CCC[C@H]1C(=O)N[C@H](C(=O)N[C@@H](CCC(=O)O)C(=O)N[C@H](C(=O)NCC(=O)N[C@@H](CO)C(=O)NCC(=O)N[C@H](C(=O)N[C@@H](Cc1ccc(O)cc1)C(N)=O)[C@@H](C)O)[C@@H](C)O)[C@@H](C)O)[C@@H](C)O)C(C)C)[C@@H](C)O [compound 131, [N-terminal(C20 diacid-gGlu), des1, 4G, 9V, 12K, 15Q, 21Q, 23Y, 25P, 30S, 31G, 32T, 33Y]mimylin] ({C20 diacid-γGlu}-ASGLSTAVLGKLSQELHELQTYPPTETGSGTY-NH2) |
| ≧200 μM |  | 110 µM (≈ 455 µg/mL) | ≧200 μM | ≧200 μM | ≧200 μM | ≧200 μM | ≧200 μM | 32 pM |  |  | ≧200 μM |  | CC(C)C[C@H](NC(=O)CNC(=O)[C@H](CO)NC(=O)[C@H](C)NC(=O)COCCOCCNC(=O)COCCOCCNC(=O)CC[C@H](NC(=O)CCCCCCCCCCCCCCCCC(=O)O)C(=O)O)C(=O)N[C@@H](CO)C(=O)N[C@H](C(=O)N[C@@H](C)C(=O)N[C@H](C(=O)N[C@@H](CC(C)C)C(=O)NCC(=O)N[C@@H](CCCNC(=N)N)C(=O)N[C@@H](CC(C)C)C(=O)N[C@@H](CO)C(=O)N[C@@H](CCC(N)=O)C(=O)N[C@@H](CCC(=O)O)C(=O)N[C@@H](CC(C)C)C(=O)N[C@@H](Cc1cnc[nH]1)C(=O)N[C@@H](CCC(=O)O)C(=O)N[C@@H](CC(C)C)C(=O)N[C@@H](CCC(N)=O)C(=O)N[C@H](C(=O)N[C@@H](Cc1ccc(O)cc1)C(=O)N1CCC[C@H]1C(=O)N[C@@H](CCCNC(=N)N)C(=O)N[C@H](C(=O)N[C@@H](CCC(=O)O)C(=O)N[C@H](C(=O)NCC(=O)N[C@@H](CO)C(=O)NCC(=O)N[C@H](C(=O)N[C@@H](Cc1ccc(O)cc1)C(N)=O)[C@@H](C)O)[C@@H](C)O)[C@@H](C)O)[C@@H](C)O)C(C)C)[C@@H](C)O [compound 121, [N-terminal(C18 diacid-gGlu-2xOEG), des1, 4G, 9V, 15Q, 21Q, 23Y, 30S, 31G, 32T, 33Y]mimylin] |
